In ChEMBL document CHEMBL1132080, “Investigation of the S3 site of thrombin: design, synthesis and biological activity of 4-substituted 3-amino-2-pyridones incorporating P1-argininals” (Bioorg Med Chem Lett, 1999) one finds IC50 data, which are given here for eight molecules.

Structures are written as SMILES. Bounds are passed on as bounds.

Experiment [1] deals with Coagulation factor X (Homo sapiens, UniProt P00742). In words: Concentration required for the in vitro inhibitory activity against human enzyme, Factor Xa cleavage of the chromogenic substrate.
Sequence of Coagulation factor X (P00742 41-179 limits assumed): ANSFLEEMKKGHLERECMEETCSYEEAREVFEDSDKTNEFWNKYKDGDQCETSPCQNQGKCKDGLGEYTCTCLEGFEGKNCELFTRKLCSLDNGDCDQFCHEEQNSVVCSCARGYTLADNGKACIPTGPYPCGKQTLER
Sequence of Coagulation factor X (P00742 235-488 limits assumed): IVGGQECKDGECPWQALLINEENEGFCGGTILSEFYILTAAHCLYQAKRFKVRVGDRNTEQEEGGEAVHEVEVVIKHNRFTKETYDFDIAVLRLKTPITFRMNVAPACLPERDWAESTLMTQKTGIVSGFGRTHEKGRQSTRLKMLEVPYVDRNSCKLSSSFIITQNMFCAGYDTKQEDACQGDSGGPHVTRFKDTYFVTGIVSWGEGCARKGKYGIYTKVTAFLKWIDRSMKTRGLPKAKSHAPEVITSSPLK
The target of experiment [2] is Prothrombin (Homo sapiens, UniProt P00734). In words: Concentration required for the in vitro inhibitory activity against human enzyme, thrombin cleavage of the chromogenic substrate.
The target of experiment [3] is Serine protease 1 (Homo sapiens, UniProt P07477). In words: Concentration required for the in vitro inhibitory activity against human enzyme, trypsin cleavage of the chromogenic substrate.
Sequence of Serine protease 1 (P07477 whole entry): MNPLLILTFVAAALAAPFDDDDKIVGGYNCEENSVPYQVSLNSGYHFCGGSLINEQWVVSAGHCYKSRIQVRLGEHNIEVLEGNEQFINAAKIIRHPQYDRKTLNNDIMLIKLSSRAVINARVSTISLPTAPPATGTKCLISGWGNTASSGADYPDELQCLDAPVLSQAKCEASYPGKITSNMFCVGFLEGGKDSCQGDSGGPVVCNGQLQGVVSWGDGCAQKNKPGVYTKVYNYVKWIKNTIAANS
Experiment [4] deals with Plasminogen (Homo sapiens, UniProt P00747). Put plainly: Concentration required for the in vitro inhibitory activity against human enzyme, Plasmin cleavage of the chromogenic substrate.
Sequence of Plasminogen (P00747 97-580 limits assumed): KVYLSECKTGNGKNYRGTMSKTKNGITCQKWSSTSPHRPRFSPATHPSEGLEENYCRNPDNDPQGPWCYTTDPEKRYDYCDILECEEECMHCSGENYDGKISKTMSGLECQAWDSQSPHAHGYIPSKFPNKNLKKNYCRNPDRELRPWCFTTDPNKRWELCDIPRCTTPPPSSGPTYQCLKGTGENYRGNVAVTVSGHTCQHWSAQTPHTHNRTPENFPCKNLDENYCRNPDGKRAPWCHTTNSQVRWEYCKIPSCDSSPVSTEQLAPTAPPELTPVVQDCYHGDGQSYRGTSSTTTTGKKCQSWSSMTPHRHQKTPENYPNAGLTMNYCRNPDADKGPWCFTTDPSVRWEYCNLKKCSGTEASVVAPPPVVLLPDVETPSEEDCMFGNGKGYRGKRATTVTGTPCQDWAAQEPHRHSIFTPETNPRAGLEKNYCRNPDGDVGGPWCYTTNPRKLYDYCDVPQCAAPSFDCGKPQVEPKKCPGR
Sequence of Plasminogen (P00747 581-810 limits assumed): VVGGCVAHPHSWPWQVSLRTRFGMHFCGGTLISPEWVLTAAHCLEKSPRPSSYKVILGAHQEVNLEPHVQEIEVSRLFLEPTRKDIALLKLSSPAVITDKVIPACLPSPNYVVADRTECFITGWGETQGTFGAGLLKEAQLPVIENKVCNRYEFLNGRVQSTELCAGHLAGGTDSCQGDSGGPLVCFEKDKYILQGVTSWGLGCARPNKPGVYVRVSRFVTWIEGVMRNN

For orientation: IC50 means the concentration that inhibits the measured activity by half. A lower IC50 goes with greater potency.

Consider `CS(=O)(=O)Nc1c(CCC2CCCCC2)ccn(CC(=O)N[C@H]2CCCN(C(=N)N)C2O)c1=O` (some centres not stated), for which the half-inhibitory concentration (IC50) in experiment [1] was 2.5 µM; in experiment [2], 0.256 µM; in experiment [3], 0.257 µM; in experiment [4] it was greater than 2.5 µM.

Take `CS(=O)(=O)Nc1c(CCCc2ccccc2)ccn(CC(=O)N[C@H]2CCCN(C(=N)N)C2O)c1=O` (some centres not stated): the IC50 in experiment [1] is greater than 2.5 µM; in experiment [2] it was 0.203 µM; in experiment [3] it was 0.479 µM; in experiment [4], greater than 2.5 µM.

Take `N=C(N)N1CCC[C@H](NC(=O)CN2CCCC(NS(=O)(=O)Cc3ccccc3)C2=O)C1O` (some centres not stated): the IC50 is 2.5 µM in experiment [1], 0.0062 µM in experiment [2], 0.791 µM in experiment [3] and greater than 2.5 µM in experiment [4].

Consider `CC(=O)Nc1c(CCc2ccccc2)ccn(CC(=O)N[C@H]2CCCN(C(=N)N)C2O)c1=O` (some centres not stated), for which the IC50 in experiment [1] is greater than 2.5 µM; in experiment [2], 0.472 µM; in experiment [3], 1.22 µM; in experiment [4] it was greater than 2.5 µM.

On to `CNS(=O)(=O)Nc1c(CCc2ccccc2)ccn(CC(=O)N[C@H]2CCCN(C(=N)N)C2O)c1=O` (some centres not stated), for which the IC50 is 2.5 µM in experiment [1], 0.0505 µM in experiment [2], 0.103 µM in experiment [3] and 0.25 µM in experiment [4].

On to `N=C(N)N1CCC[C@H](NC(=O)Cn2ccc(CCc3ccccc3)c(NS(=O)(=O)c3ccccc3)c2=O)C1O` (some centres not stated), for which the IC50 in experiment [1] is 2.36 µM; in experiment [2] it was 0.0891 µM; in experiment [3], 0.188 µM; in experiment [4], greater than 2.5 µM.

Regarding `CS(=O)(=O)Nc1c(CCc2ccccc2)ccn(CC(=O)N[C@H]2CCCN(C(=N)N)C2O)c1=O` (some centres not stated), the half-inhibitory concentration (IC50) in experiment [1] is greater than 2.5 µM; in experiment [2] it was 0.00795 µM; in experiment [3], 0.135 µM; in experiment [4], greater than 2.5 µM.

Take `N=C(N)N1CCC[C@H](NC(=O)Cn2ccc(CCc3ccccc3)c(NS(=O)(=O)CC(F)(F)F)c2=O)C1O` (some centres not stated): the half-inhibitory concentration (IC50) in experiment [1] was greater than 2.5 µM; in experiment [2] it was 0.194 µM; in experiment [3], 1.22 µM; in experiment [4] it was greater than 2.5 µM.
